Measurements published in US20240252472A1, “COMBINATIONS FOR TREATING CANCER” (Purdue Pharma L.P., priority 2023, published 2024).

Tests used:
Type in all cases: in vivo
MM1S-luc derived tumors = assay: Disseminated human myeloma model, CB17-SCID mice; details: EDO-S101 15 mg/kg i.v. weekly, daratumumab 8 mg/kg i.p. weekly, 4 weeks; vehicle 33 days
Procedure: MM1S-luc cells (3×10^6) were injected intravenously (i.v.) into CB17-SCID mice which were determined to have normal NK cells, monocytes and granulocytes (The Jackson Laboratory, Bar Harbor, ME, USA). Tumor development was monitored by non-invasive bioluminescence imaging (BLI) with a Xenogen IVIS 50 system (Caliper Life Sciences, Hopkinton, MA, USA). Mice were randomized into four groups (n=5/group): one receiving vehicle (i.v., weekly), another group receiving EDO-S101 (15 mg/kg i.v., weekly on Tuesdays), another group receiving daratumumab (8 mg/kg i.p., weekly on Wednesdays) and the last group receiving the double combination of EDO-S101+daratumumab. Both drugs were administered over a period of 4 weeks.
CB17-SCID mice bearing MM1S-luc derived tumors were treated with EDO-S101, daratumumab, a combination thereof, or vehicle, in accordance with the methods outlined above. MM1S-Luc cells (3×10^6) were intravenously injected into CB17-SCID mice. After 2 weeks, mice were randomized into four groups: one receiving vehicle (i.v., weekly), another group receiving EDO-S101 (15 mg/kg i.v., weekly on Tuesdays), another group receiving daratumumab (8 mg/kg i.p., weekly on Wednesdays) and the last group received the double combination of EDO-S101+daratumumab. Survival of mice analyzed with a Kaplan-Meier curve. Both drugs were administered over a period of 4 weeks.

[1] = tested on: subcutaneous plasmacytoma derived from MM.1S cells; assay: First subcutaneous plasmacytoma model, NSG mice with human NK cells; details: EDO-S101 30 mg/kg i.v. weekly, daratumumab 8 mg/kg i.p. weekly, 4 weeks; vehicle 30 days
Procedure: For the first subcutaneous human plasmacytoma model, NSG mice (Charles River Laboratories, Wilmington, MA, USA) were subcutaneously inoculated into the right flank with 3×10^6 MM1S in 100 μL RPMI 1640 medium and 100 μL of Matrigel (BD Biosciences). When tumors developed, mice were injected with human NK cells isolated from buffy coats from healthy donors and randomized (4 mice/group) to receive: EDO-S101 (30 mg/kg, iv weekly), daratumumab (8 mg/kg, ip weekly), a combination thereof, or vehicle (PBS vehicle solution with 15% HPBCD, 1.5% acetic acid, and 1.25% NaHCO3). Both, NK cells and the treatments were administered over four consecutive weeks. Caliper measurements of the tumor diameters were performed three times a week, and the tumor volume was estimated as the volume of a 3D ellipse using the following formula: V=4/3π×(a/2)×(b/2)^2, where “a” and “b” correspond to the longest and shortest diameter, respectively. Animals were killed when their tumors reached 2 cm. Differences in tumor volumes between control and treated groups were evaluated using one-way analysis of variance and Dunn's post-hoc tests. […]

[2] = tested on: subcutaneous plasmacytoma derived from MM1.S cells; assay: Second subcutaneous plasmacytoma model, CB17-SCID mice; details: EDO-S101 30 mg/kg i.v. weekly, daratumumab 8 mg/kg i.p. weekly, 4 weeks; vehicle 34 days
Source text: For the second subcutaneous human plasmacytoma model, CB17-SCID mice (The Jackson Laboratory) were used. CB17-SCID mice were randomised into groups (n=5). The design of the experiment (treatment doses and time schedule) was identical to the experiment described above with NSG mice except for the inoculation of NK cells, since CB17-SCID mice have their own functional NK cells.
For the second subcutaneous human plasmacytoma model, CB17-SCID mice (20 female mice, 5-6 weeks old; from The Jackson Laboratory) were used. The design of the experiment (treatment doses and time schedule) was identical to the one performed with NSG mice except for the inoculation of human NK cells, since CB17-SCID mice hold their own functional NK cells (Dorshkind et al., J Immunol 134:3798-3801, 1985).
In the second xenograft plasmacytoma model, CB17-SCID mice bearing a subcutaneous plasmacytoma derived from MM1.S cells were randomized to receive vehicle, daratumumab, EDO-S101 or the double combination. Mice were treated with EDO-S101 on Mondays and daratumumab was administered on Tuesdays. […] Furthermore, statistical differences in survival were also found between the combination vs vehicle (58 days±2.739 vs 34 days±2.191 days, respectively; p=0.003).

## daratumumab: anti-CD38 monoclonal antibody clinically approved for multiple myeloma [reference compound]
MM1S-luc derived tumors
  median survival: 59 days
[1]
  median survival: 34 days
[2]
  overall median survival: 41 days
